In patent publication US20240384350A1, “METHODS OF TREATING CANCER WITH KINASE INHIBITORS” (BOARD OF REGENTS, THE UNIVERSITY OF TEXAS SYSTEM, priority 2021, published 2024):

Tests used:
Assay in all cases: Ba/F3 drug screening, Cell Titer Glo, IC50 Mut/WT
Type in all cases: cell-based
EGFR T725M = molecular target: T1, EGFR T725M (Homo sapiens, UniProt P00533, T725M); settings: Classical-Like, 72 hours
T1 construct: expressed in transfected cells; host or cells: Ba/F3 cells, retroviral pBabe-Puro vector (vector made by GeneScript from EGFR WT)

EGFR R776C = molecular target: T2, EGFR R776C (Homo sapiens, UniProt P00533, R776C)
T2 construct: host or cells: Ba/F3

EGFR Ex19del/L792H = molecular target: T3, EGFR Ex19del/L792H (Homo sapiens, UniProt P00533, DEL746-750/L792H)
T3 construct: expressed in transfected cells; host or cells: Ba/F3
Experimental: (§1) Data represent the ratio of the IC50 value for a given TKI for cells with a PACC EGFR mutation to the IC50 value for cells with wildtype EGFR.
(§2) Ba/F3 cell generation, drug screening, and IC50 approximations. Ba/F3 cells were obtained as a gift from Dr. Gordon Mills (MD Anderson Cancer Center), and maintained in RPMI (Sigma) containing 10% FBS, 1% penicillin/streptomycin, and 10 ng/ml recombinant mIL-3 (R&D Biosystems). To establish stable Ba/F3 cell lines, Ba/F3 cells were transduced with retroviruses containing mutant EGFR plasmids for 12-24 hours.
(§3) After 48-72 hours of transduction, 2 μg/ml puromycin (Invitrogen) was added to Ba/F3 cell lines in complete RPMI. To select for EGFR positive cell lines, cells were stained with PE-EGFR (Biolegend) and sorted by FACS. After sorting, EGFR positive cells were maintained in RPMI containing 10% FBS, 1% penicillin/streptomycin, and 1 ng/ml EGF to support cell viability. Drug screening was performed as previously described^41,42. Shortly, cells were plated in 384-well plates (Greiner Bio-One) at 2000-3000 cells per well in technical triplicate. Seven different concentrations of TKIs or DMSO vehicle were added to reach a final volume of 40 μL per well. After 72 hours, 11 μL of Cell Titer Glo (Promega) was added to each well. Plates were incubated for a minimum of 10 minutes, and bioluminescence was determined using a FLUOstar OPTIMA plate reader (BMG LABTECH). Raw bioluminescence values were normalized to DMSO control treated cells, and values were plotted in GraphPad Prism. […] Drug screens were performed in technical triplicate on each plate and either duplicate or triplicate biological replicates.

EGFR E709K L858R = molecular target: T4, EGFR E709K L858R (Homo sapiens, UniProt P00533, E709K/L858R); settings: Classical-Like, 72 hours
T4 construct: expressed in transfected cells; host or cells: Ba/F3 cells, retroviral pBabe-Puro vector
Experimental: (§4) Data represent the ratio of the IC50 value for a given TKI for cells with a classical-like EGFR mutation to the IC50 value for cells with wildtype EGFR.
as §2
(§5) After 48-72 hours of transduction, 2 μg/ml puromycin (Invitrogen) was added to Ba/F3 cell lines in complete RPMI. To select for EGFR positive cell lines, cells were stained with PE-EGFR (Biolegend) and sorted by FACS. After sorting, EGFR positive cells were maintained in RPMI containing 10% FBS, 1% penicillin/streptomycin, and 1 ng/ml EGF to support cell viability. […] Shortly, cells were plated in 384-well plates (Greiner Bio-One) at 2000-3000 cells per well in technical triplicate. Seven different concentrations of TKIs or DMSO vehicle were added to reach a final volume of 40 μL per well. After 72 hours, 11 μL of Cell Titer Glo (Promega) was added to each well. Plates were incubated for a minimum of 10 minutes, and bioluminescence was determined using a FLUOstar OPTIMA plate reader (BMG LABTECH). Raw bioluminescence values were normalized to DMSO control treated cells, and values were plotted in GraphPad Prism. […] Drug screens were performed in technical triplicate on each plate and either duplicate or triplicate biological replicates.

EGFR S811F = molecular target: T5, EGFR S811F (Homo sapiens, UniProt P00533, S811F); settings: Classical-Like, 72 hours
T5 construct: expressed in transfected cells; host or cells: Ba/F3 cells, retroviral pBabe-Puro vector (vector made by GeneScript from EGFR WT)

EGFR D770insNPG = molecular target: T6, EGFR D770insNPG (Homo sapiens, UniProt P00533, INS770NPG); settings: Ex20, 72 hours
T6 construct: expressed in transfected cells; host or cells: Ba/F3 cells, retroviral pBabe-Puro vector

EGFR L858R G724S = molecular target: T7, EGFR L858R G724S (Homo sapiens, UniProt P00533, G724S/L858R)
T7 construct: expressed in transfected cells; host or cells: Ba/F3 (retroviral transduction, pBabe-Puro based vectors)

EGFR S768dupSVD = molecular target: T8, EGFR S768dupSVD (Homo sapiens, UniProt P00533, DUP768-770); settings: Ex20, 72 hours
T8 construct: expressed in transfected cells; host or cells: Ba/F3 cells, retroviral pBabe-Puro vector

EGFR G719S = molecular target: T9, EGFR G719S (Homo sapiens, UniProt P00533, G719S)
T9 construct: expressed in transfected cells; host or cells: Ba/F3

EGFR Ex19del/C797S = molecular target: T10, EGFR Ex19del/C797S (Homo sapiens, UniProt P00533, C797S/DEL746-750)
T10 construct: expressed in transfected cells; host or cells: Ba/F3
Experimental: as §1, §2, §3

EGFR S768I V774M = molecular target: T11, EGFR S768I V774M (Homo sapiens, UniProt P00533, S768I/V774M)
T11 construct: host or cells: Ba/F3
Experimental: as §1, §2, §3

EGFR L858R T790M V843I = molecular target: T12, EGFR L858R T790M V843I (Homo sapiens, UniProt P00533, L858R/T790M/V843I); settings: T790M-like-3S, 72 hours
T12 construct: expressed in transfected cells; host or cells: Ba/F3

EGFR Ex19del T790M C797S = molecular target: T13, EGFR Ex19del T790M C797S (Homo sapiens, UniProt P00533, C797S/DEL746-750/T790M); settings: T790M-like-3R, 72 hours
T13 construct: expressed in transfected cells; host or cells: Ba/F3
Experimental: (§6) Data represent the ratio of the IC50 value for a given TKI for cells with a T790M-like-3R EGFR mutation to the IC50 value for cells with wildtype EGFR.
as §2
(§7) After 48-72 hours of transduction, 2 μg/ml puromycin (Invitrogen) was added to Ba/F3 cell lines in complete RPMI. To select for EGFR positive cell lines, cells were stained with PE-EGFR (Biolegend) and sorted by FACS. After sorting, EGFR positive cells were maintained in RPMI containing 10% FBS, 1% penicillin/streptomycin, and 1 ng/ml EGF to support cell viability. […] Shortly, cells were plated in 384-well plates (Greiner Bio-One) at 2000-3000 cells per well in technical triplicate. Seven different concentrations of TKIs or DMSO vehicle were added to reach a final volume of 40 μL per well. After 72 hours, 11 μL of Cell Titer Glo (Promega) was added to each well. Plates were incubated for a minimum of 10 minutes, and bioluminescence was determined using a FLUOstar OPTIMA plate reader (BMG LABTECH). Raw bioluminescence values were normalized to DMSO control treated cells, and values were plotted in GraphPad Prism. […] Drug screens were performed in technical triplicate on each plate and either duplicate or triplicate biological replicates. […] Statistical differences between groups were determined by ANOVA as described in the figure legends.

EGFR L861Q = molecular target: T14, EGFR L861Q (Homo sapiens, UniProt P00533, L861Q); settings: Classical-Like, 72 hours
T14 construct: expressed in transfected cells; host or cells: Ba/F3 cells, retroviral pBabe-Puro vector
Experimental: as §4, §2, §5

EGFR S720P = molecular target: T15, EGFR S720P (Homo sapiens, UniProt P00533, S720P); settings: Classical-Like, 72 hours
T15 construct: expressed in transfected cells; host or cells: Ba/F3 cells, retroviral pBabe-Puro vector (vector made by GeneScript from EGFR WT)

EGFR L718Q T790M = molecular target: T16, EGFR L718Q T790M (Homo sapiens, UniProt P00533, L718Q/T790M); settings: T790M-like-3R, 72 hours
T16 construct: expressed in transfected cells; host or cells: Ba/F3
Experimental: as §6, §2, §7

EGFR L858R/T790M/C797S = molecular target: T17, EGFR L858R/T790M/C797S (Homo sapiens, UniProt P00533, C797S/L858R/T790M); settings: T790M-like-3R, 72 hours
T17 construct: expressed in transfected cells; host or cells: Ba/F3

EGFR Ex19del L718V = molecular target: T18, EGFR Ex19del L718V (Homo sapiens, UniProt P00533, DEL746-750/L718V)
T18 construct: expressed in transfected cells; host or cells: Ba/F3

EGFR E709K G719S = molecular target: T19, EGFR E709K G719S (Homo sapiens, UniProt P00533, E709K/G719S)
T19 construct: expressed in transfected cells; host or cells: Ba/F3
Experimental: as §1, §2, §3

EGFR S784F = molecular target: T20, EGFR S784F (Homo sapiens, UniProt P00533, S784F); settings: Classical-Like, 72 hours
T20 construct: expressed in transfected cells; host or cells: Ba/F3 cells, retroviral pBabe-Puro vector (vector made by GeneScript from EGFR WT)

EGFR K754E = molecular target: T21, EGFR K754E (Homo sapiens, UniProt P00533, K754E); settings: Classical-Like, 72 hours
T21 construct: expressed in transfected cells; host or cells: Ba/F3 cells, retroviral pBabe-Puro vector

EGFR K757R = molecular target: T22, EGFR K757R (Homo sapiens, UniProt P00533, K757R)
T22 construct: expressed in transfected cells; host or cells: Ba/F3

EGFR S768I = molecular target: T23, EGFR S768I (Homo sapiens, UniProt P00533, S768I)
T23 construct: expressed in transfected cells; host or cells: Ba/F3

EGFR N771dupN = molecular target: T24, EGFR N771dupN (Homo sapiens, UniProt P00533, DUP771-771); settings: Ex20, 72 hours
T24 construct: expressed in transfected cells; host or cells: Ba/F3 cells, retroviral pBabe-Puro vector

EGFR V769L = molecular target: T25, EGFR V769L (Homo sapiens, UniProt P00533, V769L)
T25 construct: expressed in transfected cells; host or cells: Ba/F3
Experimental: as §1, §2, §3

EGFR A763insFQEA = molecular target: T26, EGFR A763insFQEA (Homo sapiens, UniProt P00533, INS763FQEA); settings: Classical-Like, 72 hours
T26 construct: expressed in transfected cells; host or cells: Ba/F3 cells, retroviral pBabe-Puro vector

EGFR Ex19del/T790M/L792H = molecular target: T27, EGFR Ex19del/T790M/L792H (Homo sapiens, UniProt P00533, DEL746-750/L792H/T790M); settings: T790M-like-3R, 72 hours
T27 construct: expressed in transfected cells; host or cells: Ba/F3
Experimental: as §6, §2, §7

SMILES	ratio of IC50 for cells with mutant EGFR to IC50 for cells with wildtype EGFR (Mut/WT) (EGFR T725M)	ratio of IC50 for cells with mutant EGFR to IC50 for cells with wildtype EGFR (Mut/WT) (EGFR E709K L858R)	ratio of IC50 for cells with mutant EGFR to IC50 for cells with wildtype EGFR (Mut/WT) (EGFR S811F)	ratio of IC50 for cells with mutant EGFR to IC50 for cells with wildtype EGFR (Mut/WT) (EGFR D770insNPG)	ratio of IC50 for cells with mutant EGFR to IC50 for cells with wildtype EGFR (Mut/WT) (EGFR S768dupSVD)	ratio of IC50 for cells with mutant EGFR to IC50 for cells with wildtype EGFR (Mut/WT) (EGFR L858R T790M V843I)	ratio of IC50 for cells with mutant EGFR to IC50 for cells with wildtype EGFR (Mut/WT) (EGFR Ex19del T790M C797S)	ratio of IC50 for cells with mutant EGFR to IC50 for cells with wildtype EGFR (Mut/WT) (EGFR L861Q)	ratio of IC50 for cells with mutant EGFR to IC50 for cells with wildtype EGFR (Mut/WT) (EGFR S720P)	ratio of IC50 for cells with mutant EGFR to IC50 for cells with wildtype EGFR (Mut/WT) (EGFR L718Q T790M)	ratio of IC50 for cells with mutant EGFR to IC50 for cells with wildtype EGFR (Mut/WT) (EGFR L858R/T790M/C797S)	ratio of IC50 for cells with mutant EGFR to IC50 for cells with wildtype EGFR (Mut/WT) (EGFR S784F)	ratio of IC50 for cells with mutant EGFR to IC50 for cells with wildtype EGFR (Mut/WT) (EGFR K754E)	ratio of IC50 for cells with mutant EGFR to IC50 for cells with wildtype EGFR (Mut/WT) (EGFR N771dupN)	ratio of IC50 for cells with mutant EGFR to IC50 for cells with wildtype EGFR (Mut/WT) (EGFR A763insFQEA)	ratio of IC50 for cells with mutant EGFR to IC50 for cells with wildtype EGFR (Mut/WT) (EGFR Ex19del/T790M/L792H)	further results
CNC(=O)CN1CCC(Oc2cc3c(Nc4cccc(Cl)c4F)ncnc3cc2OC)CC1 [Sapatinib]	0.00667	0.02084	0.006549	5.022	2.666	49	17.13	0.01265	0.004664	54.78	66.82	0.08508	0.00307	1.24	0.3137	451.7	ratio of IC50 for cells with mutant EGFR to IC50 for cells with wildtype EGFR (Mut/WT) (EGFR R776C; PACC, R776C, Ba/F3, 72 hours): 0.02012; ratio of IC50 for cells with mutant EGFR to IC50 for cells with wildtype EGFR (Mut/WT) (EGFR Ex19del/L792H; PACC, Ex19del/L792H, Ba/F3, 72 hours): 53.47; ratio of IC50 for cells with mutant EGFR to IC50 for cells with wildtype EGFR (Mut/WT) (EGFR L858R G724S; PACC, L858R G724S, Ba/F3, 72 hours): 0.0004959; ratio of IC50 for cells with mutant EGFR to IC50 for cells with wildtype EGFR (Mut/WT) (EGFR G719S; PACC, G719S, Ba/F3, 72 hours): 0.1998; ratio of IC50 for cells with mutant EGFR to IC50 for cells with wildtype EGFR (Mut/WT) (EGFR Ex19del/C797S; PACC, Ex19del/C797S, Ba/F3, 72 hours): 0.0006085; ratio of IC50 for cells with mutant EGFR to IC50 for cells with wildtype EGFR (Mut/WT) (EGFR S768I V774M; PACC, S768I V774M, Ba/F3, 72 hours): 0.2648; ratio of IC50 for cells with mutant EGFR to IC50 for cells with wildtype EGFR (Mut/WT) (EGFR Ex19del L718V; PACC, Ex19del L718V, Ba/F3, 72 hours): 0.08016; ratio of IC50 for cells with mutant EGFR to IC50 for cells with wildtype EGFR (Mut/WT) (EGFR E709K G719S; PACC, E709K G719S, Ba/F3, 72 hours): 0.01102; ratio of IC50 for cells with mutant EGFR to IC50 for cells with wildtype EGFR (Mut/WT) (EGFR K757R; PACC, K757R, Ba/F3, 72 hours): 0.3144; ratio of IC50 for cells with mutant EGFR to IC50 for cells with wildtype EGFR (Mut/WT) (EGFR S768I; PACC, S768I, Ba/F3, 72 hours): 0.1883; ratio of IC50 for cells with mutant EGFR to IC50 for cells with wildtype EGFR (Mut/WT) (EGFR V769L; PACC, V769L, Ba/F3, 72 hours): 0.1992
C=CC(=O)Nc1cc(Nc2ncc(C(=O)OC(C)C)c(-c3cn(C)c4ccccc34)n2)c(OC)cc1N(C)CCN(C)C [TAK-788 (mobocertinib), mobocertinib]	1.082	0.008356	0.003195	1.211	0.2515	1.649	117.8	0.8467	0.111	43.09	134.7	0.01487	0.1738	0.8508	0.473	0.885	ratio of the IC50 value for cells with a PACC EGFR mutation to the IC50 value for cells with wildtype EGFR (EGFR R776C; Ba/F3 cells, EGFR R776C (PACC), Mut/WT): 0.04235; ratio of the IC50 value for cells with a PACC EGFR mutation to the IC50 value for cells with wildtype EGFR (EGFR Ex19del/L792H; Ba/F3 cells, EGFR Ex19del/L792H (PACC), Mut/WT): 6.547; ratio of the IC50 value for cells with a PACC EGFR mutation to the IC50 value for cells with wildtype EGFR (EGFR L858R G724S; Ba/F3 cells, EGFR L858R G724S (PACC), Mut/WT): 0.01089; ratio of the IC50 value for cells with a PACC EGFR mutation to the IC50 value for cells with wildtype EGFR (EGFR G719S; Ba/F3 cells, EGFR G719S (PACC), Mut/WT): 2.056; ratio of the IC50 value for cells with a PACC EGFR mutation to the IC50 value for cells with wildtype EGFR (EGFR Ex19del/C797S; Ba/F3 cells, EGFR Ex19del/C797S (PACC), Mut/WT): 43.27; ratio of the IC50 value for cells with a PACC EGFR mutation to the IC50 value for cells with wildtype EGFR (EGFR S768I V774M; Ba/F3 cells, EGFR S768I V774M (PACC), Mut/WT): 1.227; ratio of the IC50 value for cells with a PACC EGFR mutation to the IC50 value for cells with wildtype EGFR (EGFR Ex19del L718V; Ba/F3 cells, EGFR Ex19del L718V (PACC), Mut/WT): 1.296; ratio of the IC50 value for cells with a PACC EGFR mutation to the IC50 value for cells with wildtype EGFR (EGFR E709K G719S; Ba/F3 cells, EGFR E709K G719S (PACC), Mut/WT): 2.046; ratio of the IC50 value for cells with a PACC EGFR mutation to the IC50 value for cells with wildtype EGFR (EGFR K757R; Ba/F3 cells, EGFR K757R (PACC), Mut/WT): 1.563; ratio of the IC50 value for cells with a PACC EGFR mutation to the IC50 value for cells with wildtype EGFR (EGFR S768I; Ba/F3 cells, EGFR S768I (PACC), Mut/WT): 0.7766; ratio of the IC50 value for cells with a PACC EGFR mutation to the IC50 value for cells with wildtype EGFR (EGFR V769L; Ba/F3 cells, EGFR V769L (PACC), Mut/WT): 3.454
